Experimental data published in patent US9492453B2 (priority 2007, dated 2016).
Read-outs that look alike come from different tables or passages of the source.

Columns and labels:
[1] = tested on: PKB (Akt); details: read-out: Cellular PKB Mean IC50; MDA-MB-468 cells, phosphorylation of Serine-9 of GSK-3β, 2 hours incubation
[2] = target: AKT1 (PKBα) (Homo sapiens (Human), UniProt P31749); details: read-out: In vitro PKBα Mean IC50, AKT1/PKBα active enzyme, Caliper LabChip LC3000
Sequence of AKT1 (PKBα) (P31749 whole entry): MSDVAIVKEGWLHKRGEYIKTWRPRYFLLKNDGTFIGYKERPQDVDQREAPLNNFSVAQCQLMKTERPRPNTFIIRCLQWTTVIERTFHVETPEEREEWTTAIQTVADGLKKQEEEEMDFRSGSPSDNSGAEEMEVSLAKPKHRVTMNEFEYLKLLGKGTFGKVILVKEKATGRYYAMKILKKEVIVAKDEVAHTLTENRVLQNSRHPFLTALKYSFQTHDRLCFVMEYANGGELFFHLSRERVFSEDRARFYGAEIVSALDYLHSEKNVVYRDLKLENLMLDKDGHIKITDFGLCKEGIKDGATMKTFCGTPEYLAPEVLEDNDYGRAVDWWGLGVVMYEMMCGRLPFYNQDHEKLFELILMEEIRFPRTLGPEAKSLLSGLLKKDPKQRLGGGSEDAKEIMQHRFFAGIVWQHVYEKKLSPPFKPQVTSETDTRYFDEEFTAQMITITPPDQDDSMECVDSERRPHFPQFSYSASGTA

SMILES: NCC(NC(=O)C1(N)CCN(c2ncnc3[nH]ccc23)CC1)c1ccc(Cl)cc1 (centres unmarked) [Example 5, 4-amino-N-(2-amino-1-(4-chlorophenyl)ethyl)-1-(7H-pyrrolo[2,3-d]pyrimidin-4-yl)piperidine-4-carboxamide]
- IC50 [1]: 270 nM
- IC50 [2]: 9.7 nM

SMILES: C[C@H](NC(=O)C1(CN)CCN(c2ncnc3[nH]ccc23)CC1)c1ccc(Cl)cc1 [Example 6, (S)-4-(aminomethyl)-N-(1-(4-chlorophenyl)ethyl)-1-(7H-pyrrolo[2,3-d]pyrimidin-4-yl)piperidine-4-carboxamide]
- IC50 [1]: 20 nM
- IC50 [2]: 1.2 nM

SMILES: CC(=O)NCCC(NC(=O)C1(N)CCN(c2ncnc3[nH]ccc23)CC1)c1ccc(Cl)cc1 (centres unmarked) [Example 10, N-(3-acetamido-1-(4-chlorophenyl)propyl)-4-amino-1-(7H-pyrrolo[2,3-d]pyrimidin-4-yl)piperidine-4-carboxamide]
- IC50 [1]: 250 nM
- IC50 [2]: 4.2 nM

SMILES: NCC1(C(=O)NC(CCO)c2ccc(Cl)cc2)CCN(c2ncnc3[nH]ccc23)CC1 (centres unmarked) [Example 12, 4-(aminomethyl)-N-(1-(4-chlorophenyl)-3-hydroxypropyl)-1-(7H-pyrrolo[2,3-d]pyrimidin-4-yl)piperidine-4-carboxamide]
- IC50 [1]: 100 nM

SMILES: NCCC(NC(=O)C1(N)CCN(c2ncnc3[nH]ccc23)CC1)c1ccc(Cl)cc1 (centres unmarked) [Example 14, 4-amino-N-(3-amino-1-(4-chlorophenyl)propyl)-1-(7H-pyrrolo[2,3-d]pyrimidin-4-yl)piperidine-4-carboxamide]
- IC50 [1]: 940 nM
- IC50 [2]: 3 nM

SMILES: NC1(C(=O)N[C@H](CCO)c2ccc(Cl)cc2)CCN(c2ncnc3[nH]ccc23)CC1 [Example 15, (R)-4-amino-N-(1-(4-chlorophenyl)-3-hydroxypropyl)-1-(7H-pyrrolo[2,3-d]pyrimidin-4-yl)piperidine-4-carboxamide]
- IC50 [1]: > 3100 nM

SMILES: C[C@@H](NC(=O)C1(CN)CCN(c2ncnc3[nH]ccc23)CC1)c1ccc(Cl)cc1 [Example 17, (R)-4-(aminomethyl)-N-(1-(4-chlorophenyl)ethyl)-1-(7H-pyrrolo[2,3-d]pyrimidin-4-yl)piperidine-4-carboxamide]
- IC50 [1]: 240 nM
- IC50 [2]: 12 nM

SMILES: N#Cc1ccc([C@H](CCO)NC(=O)C2(N)CCN(c3ncnc4[nH]ccc34)CC2)cc1 [Example 18, (S)-4-amino-N-(1-(4-cyanophenyl)-3-hydroxypropyl)-1-(7H-pyrrolo[2,3-d]pyrimidin-4-yl)piperidine-4-carboxamide]
- IC50 [1]: 1400 nM
- IC50 [2]: 16 nM

SMILES: NC1(C(=O)N[C@@H](CCO)c2ccc(Cl)cc2)CCN(c2ncnc3[nH]cc(Br)c23)CC1 [Example 19, (S)-4-amino-1-(5-bromo-7H-pyrrolo[2,3-d]pyrimidin-4-yl)-N-(1-(4-chlorophenyl)-3-hydroxypropyl)piperidine-4-carboxamide]
- IC50 [1]: 260 nM

SMILES: NC1(C(=O)N[C@@H](CCO)c2ccc(Cl)cc2)CCN(c2ncnc3[nH]ncc23)CC1 [Example 20, (S)-4-amino-N-(1-(4-chlorophenyl)-3-hydroxypropyl)-1-(1H-pyrazolo[3,4-d]pyrimidin-4-yl)piperidine-4-carboxamide]
- IC50 [1]: 980 nM
- IC50 ([2]; tested once only): 20 nM

SMILES: NC1(C(=O)N[C@@H](CCO)c2ccccc2)CCN(c2ncnc3[nH]ccc23)CC1 [Example 21, (S)-4-amino-N-(3-hydroxy-1-phenylpropyl)-1-(7H-pyrrolo[2,3-d]pyrimidin-4-yl)piperidine-4-carboxamide]
- IC50 [1]: > 3100 nM
- IC50 ([2]; tested once only): 59 nM

SMILES: NC1(C(=O)N[C@@H](CCO)c2ccc(Cl)cc2)CCN(c2ncnc3[nH]cnc23)CC1 [Example 22, (S)-4-amino-N-(1-(4-chlorophenyl)-3-hydroxypropyl)-1-(9H-purin-6-yl)piperidine-4-carboxamide]
- IC50 [1]: 170 nM
- IC50 [2]: 7.5 nM

SMILES: NCC1(C(=O)N[C@@H](CCO)c2ccc(Cl)cc2)CCN(c2ncnc3[nH]ccc23)CC1 [Example 23, (S)-4-(aminomethyl)-N-(1-(4-chlorophenyl)-3-hydroxypropyl)-1-(7H-pyrrolo[2,3-d]pyrimidin-4-yl)piperidine-4-carboxamide]
- IC50 [1]: 80 nM
- IC50 [2]: 1.3 nM

SMILES: NC1(C(=O)N[C@@H](CCO)c2ccc(Br)cc2)CCN(c2ncnc3[nH]ccc23)CC1 [Example 24, (S)-4-amino-N-(1-(4-bromophenyl)-3-hydroxypropyl)-1-(7H-pyrrolo[2,3-d]pyrimidin-4-yl)piperidine-4-carboxamide]
- IC50 [1]: 60 nM
- IC50 [2]: 2.2 nM

SMILES: CCN(CC)CC[C@H](NC(=O)C1(N)CCN(c2ncnc3[nH]ccc23)CC1)c1ccc(Cl)cc1 [Example 26, (S)-4-amino-N-(1-(4-chlorophenyl)-3-(diethylamino)propyl)-1-(7H-pyrrolo[2,3-d]pyrimidin-4-yl)piperidine-4-carboxamide]
- IC50 [1]: 90 nM
- IC50 [2]: 5.6 nM

SMILES: NC1(C(=O)N[C@@H](CCO)c2ccc(Cl)cc2)CCN(c2ncnc3[nH]cc(C4CC4)c23)CC1 [Example 27, (S)-4-amino-N-(1-(4-chlorophenyl)-3-hydroxypropyl)-1-(5-cyclopropyl-7H-pyrrolo[2,3-d]pyrimidin-4-yl)piperidine-4-carboxamide]
- IC50 [1]: 370 nM

SMILES: CNCCC(NC(=O)C1(N)CCN(c2ncnc3[nH]ccc23)CC1)c1ccc(Cl)cc1 (centres unmarked) [Example 28, 4-amino-N-(1-(4-chlorophenyl)-3-(methylamino)propyl)-1-(7H-pyrrolo[2,3-d]pyrimidin-4-yl)piperidine-4-carboxamide]
- IC50 [1]: 470 nM
- IC50 [2]: 4.5 nM

SMILES: C[C@H](NC(=O)C1(N)CCN(c2ncnc3[nH]nc(Br)c23)CC1)c1ccc(Cl)cc1 [Example 31, 4-amino-1-(3-bromo-1H-pyrazolo[3,4-d]pyrimidin-4-yl)-N-[(1S)-1-(4-chlorophenyl)ethyl]piperidine-4-carboxamide]
- IC50 [1]: 1100 nM
- IC50 [2]: 24 nM

SMILES: C[C@H](NC(=O)C1(N)CCN(c2ncnc3[nH]cc(Cl)c23)CC1)c1ccc(Cl)cc1 [Example 32, 4-amino-N-[(1S)-1-(4-chlorophenyl)ethyl]-1-(5-chloro-7H-pyrrolo[2,3-d]pyrimidin-4-yl)piperidine-4-carboxamide]
- IC50 [1]: 420 nM
- IC50 [2]: 12 nM

SMILES: NC1(C(=O)N[C@@H](CCO)c2ccc(Cl)cc2)CCN(c2ncnc3[nH]nc(Br)c23)CC1 [Example 33, 4-amino-1-(3-bromo-1H-pyrazolo[3,4-d]pyrimidin-4-yl)-N-[(1S)-1-(4-chlorophenyl)-3-hydroxypropyl]piperidine-4-carboxamide]
- IC50 [1]: 240 nM
- IC50 [2]: 14 nM

SMILES: NC1(C(=O)N[C@@H](CCO)c2ccc(Cl)cc2)CCN(c2ncnc3[nH]cc(Cl)c23)CC1 [Example 34, 4-amino-N-[(1S)-1-(4-chlorophenyl)-3-hydroxypropyl]-1-(5-chloro-7H-pyrrolo[2,3-d]pyrimidin-4-yl)piperidine-4-carboxamide]
- IC50 [1]: 350 nM
- IC50 [2]: 9.2 nM

SMILES: C[C@H](NC(=O)C1(N)CCN(c2ncnc3[nH]cc(Br)c23)CC1)c1ccc(Cl)cc1 [Example 35, 4-amino-1-(5-bromo-7H-pyrrolo[2,3-d]pyrimidin-4-yl)-N-[(1S)-1-(4-chlorophenyl)ethyl]piperidine-4-carboxamide]
- IC50 [1]: 280 nM
- IC50 [2]: 4 nM

SMILES: C[C@H](NC(=O)C1(N)CCN(c2ncnc3[nH]ccc23)CC1)c1ccc(C#N)cc1 [Example 39, 4-amino-N-[(1S)-1-(4-cyanophenyl)ethyl]-1-(7H-pyrrolo[2,3-d]pyrimidin-4-yl)piperidine-4-carboxamide]
- IC50 [1]: 1900 nM
